{
  "source": "patent US20120053148A1",
  "about": "“INHIBITORS OF HEPATITIS C VIRUS” (GILEAD SCIENCES, INC., priority 2010, published 2012)",
  "tested_on": "HCV Replicon IB",
  "assay": "HCV replicon assay in Huh-7 cells, genotype 1b (Rluc luciferase readout)",
  "format": "cell-based, hepatitis C virus",
  "conditions": "for pEC50: read-out: EC50_HCV1B_; for inhibition at 10 µM: 72 h, 1b-Rluc replicon, read-out: Inhibition @ 10 uM in 1b-Rluc",
  "key": {"[1]": {"conditions": "Hepatitis C virus, Huh-7, 72 h, HCV1B replicon, Huh-7 cells, 3 days"}, "[2]": {"conditions": "Hepatitis C virus, Huh-7 cells, 3 days"}, "[3]": {"conditions": "HCV1B replicon, Huh-7 cells, 3 days"}},
  "note": "pEC50: −log10 of the molar value. Like-named read-outs stand apart in the source and are kept apart here.",
  "data": [
    {"smiles": "Cc1cc(-c2nnc(N[C@H]3C[C@@](CF)(OP(=O)(O)O)C3)o2)nc2c(C(C)(C)C)cc(OCC(F)(F)F)cc12", "note": "[Compound 470]", "values": [
      {"measurement": "pEC50", "setting": "Hepatitis C virus, Huh-7, 72 h", "value": 9.14}
    ]},
    {"smiles": "CC(C)(C)c1cc(C2CC2)cc2c(N)cc(C(=O)NC[C@H]3CS(=O)(=O)CCN3)nc12", "note": "[Compound 335]", "values": [
      {"measurement": "pEC50", "setting": "[1]", "value": 8.52}
    ]},
    {"smiles": "CO[C@@H]1CNC(CNc2nnc(-c3cc(C)c4cc(C5CC5)cc(C(F)(F)F)c4n3)s2)C1", "note": "(stereo partly drawn) [Compound 311]", "values": [
      {"measurement": "pEC50", "setting": "[1]", "value": 5.95}
    ]},
    {"smiles": "CCCCCNc1nnc(-c2cc(C)c3cc(C4CC4)cc(C(F)(F)F)c3n2)o1", "note": "[Compound 388]", "values": [
      {"measurement": "pEC50", "setting": "[1]", "value": 7.88}
    ]},
    {"smiles": "Cc1cc(C(=O)NC[C@@H]2CC3(CN2)OCCO3)nc2c(C(C)(C)C)cc(C3CC3)cc12", "note": "[Compound 431]", "values": [
      {"measurement": "pEC50", "setting": "[1]", "value": 8.09}
    ]},
    {"smiles": "Cc1cc(-c2nnc(NCCC(C)(C)O)s2)nc2c(C(F)(F)F)cc(C3CC3)cc12", "note": "[Compound 295]", "values": [
      {"measurement": "inhibition at 10 µM", "setting": "[2]", "value": 98.1, "unit": "%"}
    ]},
    {"smiles": "Cc1cc(C(=O)NCc2ccccn2)nc2c(C(F)(F)F)cc(C#N)cc12", "note": "[Compound 144]", "values": [
      {"measurement": "inhibition at 10 µM", "setting": "[2]", "value": 57.9, "unit": "%"}
    ]},
    {"smiles": "O=C(NCc1ccccn1)c1cc(Cl)c2cc(C3CC3)cc(C(F)(F)F)c2n1", "note": "[Compound 210]", "values": [
      {"measurement": "inhibition at 10 µM", "setting": "[2]", "value": 99.9, "unit": "%"}
    ]},
    {"smiles": "CCOCCNc1nnc(-c2cc(C)c3cc(OC)cc(C(F)(F)F)c3n2)o1", "note": "[Compound 276]", "values": [
      {"measurement": "inhibition at 10 µM", "setting": "[2]", "value": 97.6, "unit": "%"}
    ]},
    {"smiles": "CO[C@@H]1CN[C@@H](CNC(=O)c2cc(N)c3cc(C4CC4)cc(C(C)(C)C)c3n2)C1", "note": "[Compound 329]", "values": [
      {"measurement": "pEC50", "setting": "[1]", "value": 8.01}
    ]},
    {"smiles": "Cc1cc(-c2nnc(N[C@H]3CC[C@@](C)(O)CC3)o2)nc2c(C(C)(C)C)cc(OCC(F)(F)F)cc12", "note": "[Compound 497]", "values": [
      {"measurement": "pEC50", "setting": "[3]", "value": 7.13}
    ]},
    {"smiles": "C#Cc1cc(OC(F)(F)F)cc2c(Cl)cc(C(=O)NCc3ccccn3)nc12", "note": "[Compound 238]", "values": [
      {"measurement": "inhibition at 10 µM", "setting": "[2]", "value": 9.91, "unit": "%"}
    ]},
    {"smiles": "Cc1cc(C(=O)NC[C@@H]2CSCN2)nc2c(C(C)(C)C)cc(C3CC3)cc12", "note": "[Compound 427]", "values": [
      {"measurement": "pEC50", "setting": "[1]", "value": 8.13}
    ]},
    {"smiles": "Nc1cc(C(=O)NCc2ccccn2)nc2c(OC(F)(F)F)cc(C3CC3)cc12", "note": "[Compound 235]", "values": [
      {"measurement": "inhibition at 10 µM", "setting": "[2]", "value": 100, "unit": "%"}
    ]},
    {"smiles": "CNC(=O)[C@@H]1CSC(c2cc(C)c3cc(OC(F)F)cc(C(F)(F)F)c3n2)=N1", "note": "[Compound 341]", "values": [
      {"measurement": "pEC50", "setting": "[1]", "value": 5.45}
    ]},
    {"smiles": "CCCCNc1nnc(-c2cc(C)c3cc(C4CC4)cc(C(F)(F)F)c3n2)s1", "note": "[Compound 288]", "values": [
      {"measurement": "inhibition at 10 µM", "setting": "[2]", "value": 100, "unit": "%"}
    ]},
    {"smiles": "Cc1cc(-c2nnc(NCC3(C#N)CC3)o2)nc2c(C(F)(F)F)cc(C3CC3)cc12", "note": "[Compound 268]", "values": [
      {"measurement": "inhibition at 10 µM", "setting": "[2]", "value": 99.4, "unit": "%"}
    ]},
    {"smiles": "Cc1cc(C(=O)NC[C@@H]2CS(=O)(=O)CCN2)nc2c(C(C)(C)C)cc(C3CC3)cc12", "note": "[Compound 426]", "values": [
      {"measurement": "pEC50", "setting": "[1]", "value": 8.20}
    ]},
    {"smiles": "CC(C)(C)c1cc(C2CC2)cc2c(N)cc(C(=O)NCC3CS(=O)(=O)CCN3)nc12", "note": "(stereo not drawn) [Compound 324]", "values": [
      {"measurement": "pEC50", "setting": "[3]", "value": 8.44}
    ]},
    {"smiles": "CC(F)(F)CNc1nnc(-c2cc(N)c3cc(C4CC4)cc(C(C)(C)C)c3n2)o1", "note": "[Compound 346]", "values": [
      {"measurement": "pEC50", "setting": "[1]", "value": 6.81}
    ]},
    {"smiles": "CC#Cc1cc(C(F)(F)F)c2nc(C(=O)NCc3ccccn3)cc(C)c2c1", "note": "[Compound 148]", "values": [
      {"measurement": "inhibition at 10 µM", "setting": "[2]", "value": 99.5, "unit": "%"}
    ]},
    {"smiles": "Cc1cc(-c2nnc(NC3CC(O)(C(F)(F)F)C3)o2)nc2c(C(C)(C)C)cc(OCC(F)(F)F)cc12", "note": "(stereo not drawn) [Compound 469]", "values": [
      {"measurement": "pEC50", "setting": "[1]", "value": 6.94}
    ]},
    {"smiles": "Cc1cc(C(=O)NC[C@H]2CCCO2)nc2c(C(F)(F)F)cc(C3CC3)cc12", "note": "[Compound 92]", "values": [
      {"measurement": "inhibition at 10 µM", "setting": "[2]", "value": 100, "unit": "%"}
    ]},
    {"smiles": "Cc1cc(C(=O)NC[C@@H]2CS(=O)(=O)CCN2)nc2c(OC(F)(F)F)cc(C3CC3)cc12", "note": "[Compound 441]", "values": [
      {"measurement": "pEC50", "setting": "[1]", "value": 7.91}
    ]},
    {"smiles": "CCC(CNC(=O)c1cc(Cl)c2cc(OC(F)F)cc(C(F)(F)F)c2n1)=NOC", "note": "[Compound 206]", "values": [
      {"measurement": "inhibition at 10 µM", "setting": "[2]", "value": 64, "unit": "%"}
    ]},
    {"smiles": "Cc1cc(-c2nnc(N[C@H]3CCOC3)o2)nc2c(C(C)(C)C)cc(OCC(F)(F)F)cc12", "note": "[Compound 451]", "values": [
      {"measurement": "pEC50", "setting": "[1]", "value": 8.61}
    ]},
    {"smiles": "Cc1cc(-c2nnc(N[C@H]3C[C@](O)(CCF)C3)o2)nc2c(C(C)(C)C)cc(OCC(F)(F)F)cc12", "note": "[Compound 482]", "values": [
      {"measurement": "pEC50", "setting": "[1]", "value": 8.53}
    ]},
    {"smiles": "Cc1cc(C(=O)NCC2(C)OCCO2)nc2c(C(F)(F)F)cc(C3CC3)cc12", "note": "[Compound 98]", "values": [
      {"measurement": "inhibition at 10 µM", "setting": "[2]", "value": 98.1, "unit": "%"}
    ]},
    {"smiles": "Cc1cc(-c2nnc(NCC3OCCO3)o2)nc2c(C(C)(C)C)cc(OCC(F)F)cc12", "note": "[Compound 526]", "values": [
      {"measurement": "pEC50", "setting": "[1]", "value": 8.79}
    ]},
    {"smiles": "Cc1cc(-c2nnc(NCCC(C)(C)O)o2)nc2c(C(C)(C)C)cc(C3CC3)cc12", "note": "[Compound 409]", "values": [
      {"measurement": "pEC50", "setting": "[1]", "value": 8.03}
    ]}
  ]
}
